The values below come from patent publication US12319692B2, “Anti-influenza virus pyrimidine derivatives” (GUANGDONG RAYNOVENT BIOTECH CO., LTD., priority 2016, dated 2025).

A word on the EC50: it is the concentration at which the effect is half-maximal. High values mean lower potency in that assay, low ones higher potency in that assay.

Assay [1] deals with Influenza virus A/Weiss/43 (H1N1). Description: Influenza virus cytopathic effect (CPE) experiment in MDCK cells. Format: cell-based. As to conditions: 120 h, 5 days, CCK8 cell viability. (In general: Protection from cytopathic effect is a common read-out in antiviral testing.)
Assay [2] relates to influenza A virus H1N1 (H1N1 A/WSN/33). Description: In vivo pharmacodynamics in mouse infection model of influenza A virus H1N1. As to conditions: female BALB/c mice, H1N1 A/WSN/33, 10 mg/kg oral twice a day, day 1 to day 7, first dose 36 hours after infection.

Regarding `CSc1nc(-c2c[nH]c3ncc(F)cc23)nc(N[C@H]2C3CCC(CC3)[C@@H]2C(=O)O)c1F` [WX-139], the EC50 in assay [1] came to 0.02 nM.

Regarding `CCSc1nc(-c2c[nH]c3ncc(F)cc23)nc(N[C@H]2C3CCC(CC3)[C@@H]2C(=O)O)c1F` [WX-156], a half-maximal response in assay [1] (EC50) required 0.01 nM. This EC50 is about 2-fold lower than that of the molecule before.

`CSc1nc(-c2c[nH]c3c(F)cc(F)cc23)nc(N[C@H]2C3CCC(CC3)[C@@H]2C(=O)O)c1F` [WX-160] gave an EC50 in assay [1] of 0.5 nM.

The molecule `O=C(O)[C@H]1C2CCC(CC2)[C@@H]1Nc1nc(-c2c[nH]c3ncc(F)cc23)nc(-n2ccnc2)c1F` [WX-186] yielded an EC50 in assay [1] of 0.1 nM. This EC50 is about 5-fold lower than that of the molecule before.

`O=C(O)[C@H]1C2CCC(CC2)[C@@H]1Nc1nc(-c2n[nH]c3ncc(F)cc23)nc(C2CC2)c1F` [WX-216] showed an EC50 in assay [1] of 0.013 nM. In addition, in assay [2], the “Survival Rate (percentages)” value was found to be 100% and the “Weight Losing Rate (day 9)” value was 4.8%.

In assay [1], `O=C(O)[C@H]1C2CCC(CC2)[C@@H]1Nc1nc(-c2c[nH]c3ncc(F)cc23)nc(-c2ccncc2)c1F` [WX-230] gave an EC50 of 0.1 nM.

As for `Cn1cc(-c2nc(-c3c[nH]c4ncc(F)cc34)nc(N[C@H]3C4CCC(CC4)[C@@H]3C(=O)O)c2F)cn1` [WX-231], in assay [1], the half-maximal effective concentration (EC50) was 0.2 nM. In assay [2], the “Survival Rate (percentages)” value was found to be 100% and the “Weight Losing Rate (day 9)” value is reported as 12.9%.

`O=C(O)[C@H]1C2CCC(CC2)[C@@H]1Nc1nc(-c2c[nH]c3ncc(F)cc23)nc(SCC(F)(F)F)c1F` [WX-234] displayed an EC50 in assay [1] of 0.1 nM. In other words, the sub-nanomolar range.

With `O=C(O)[C@H]1C2CCC(CC2)[C@@H]1Nc1nc(-c2c[nH]c3ncc(F)cc23)nc(-c2cccs2)c1F` [WX-236], in assay [1], a half-maximal effect (EC50) was put at 0.01 nM.

As for `O=C(O)[C@H]1C2CCC(CC2)[C@@H]1Nc1nc(-c2c[nH]c3ncc(F)cc23)nc(-c2ccsc2)c1F` [WX-240], the EC50 in assay [1] was determined as 0.03 nM. Compared with the last molecule, the EC50 is about 3-fold higher.

`CC(C)(C)Sc1nc(-c2c[nH]c3ncc(F)cc23)nc(N[C@H]2C3CCC(CC3)[C@@H]2C(=O)O)c1F` [WX-241] yielded an EC50 in assay [1] of 0.01 nM.

`Cc1noc(C)c1-c1nc(-c2c[nH]c3ncc(F)cc23)nc(N[C@H]2C3CCC(CC3)[C@@H]2C(=O)O)c1F` [WX-245]: in assay [1], a half-maximal effect (EC50) was put at 4 nM.

In the case of `Cc1ccc(-c2nc(-c3c[nH]c4ncc(F)cc34)nc(N[C@H]3C4CCC(CC4)[C@@H]3C(=O)O)c2F)s1` [WX-247], the EC50 in assay [1] was 56.6 nM.

For the molecule `CC(C)C#Cc1nc(-c2c[nH]c3ncc(F)cc23)nc(N[C@H]2C3CCC(CC3)[C@@H]2C(=O)O)c1F` [WX-249], the midpoint of the response in assay [1], the EC50, lay at 0.009 nM.

As for `O=C(O)[C@H]1C2CCC(CC2)[C@@H]1Nc1nc(-c2c[nH]c3ncc(F)cc23)nc(-c2cc[nH]n2)c1F` [WX-260], in assay [1], the EC50 is 1.1 nM.

Take `CC(C)Sc1nc(-c2c[nH]c3ncc(F)cc23)nc(N[C@H]2C3CCC(CC3)[C@@H]2C(=O)O)c1F` [WX-261]: in assay [1], the EC50 came to 0.018 nM.

In turn, `O=C(O)[C@H]1C2CCC(CC2)[C@@H]1Nc1nc(-c2c[nH]c3ncc(F)cc23)nc(-c2cnn(CCO)c2)c1F` [WX-263] returned an EC50 in assay [1] of 1.5 nM. This EC50 is about 83-fold higher than that of the molecule before.

The molecule `Cn1cc(-c2nc(-c3n[nH]c4ncc(F)cc34)nc(N[C@H]3C4CCC(CC4)[C@@H]3C(=O)O)c2F)cn1` [WX-264] registered an EC50 in assay [1] of 0.1 nM.

With `O=C(O)[C@H]1C2CCC(CC2)[C@@H]1Nc1nc(-c2n[nH]c3ncc(F)cc23)nc(-c2cn[nH]c2)c1F` [WX-265], the EC50 in assay [1] is 2.8 nM. This EC50 is about 28-fold higher than that of the molecule before.

Molecule `O=C(O)[C@H]1C2CCC(CC2)[C@@H]1Nc1nc(-c2n[nH]c3ncc(F)cc23)nc(-c2ccsc2)c1F` [WX-269] came in with an EC50 in assay [1] of 0.019 nM.

On to `O=C(O)[C@H]1C2CCC(CC2)[C@@H]1Nc1nc(-c2n[nH]c3ncc(F)cc23)nc(-c2cccs2)c1F` [WX-271], for which the EC50 in assay [1] is 0.057 nM. Against the preceding molecule, the EC50 is about 3-fold higher.

Regarding `CC(C)(C)Sc1nc(-c2n[nH]c3ncc(F)cc23)nc(N[C@H]2C3CCC(CC3)[C@@H]2C(=O)O)c1F` [WX-274], the EC50 in assay [1] stood at 0.1 nM.

`CC(C)(C)C#Cc1nc(-c2c[nH]c3ncc(F)cc23)nc(N[C@H]2C3CCC(CC3)[C@@H]2C(=O)O)c1F` [WX-275] registered an EC50 in assay [1] of 0.009 nM.

Consider `CSc1nc(-c2nc(-c3c[nH]c4ncc(F)cc34)nc(N[C@H]3C4CCC(CC4)[C@@H]3C(=O)O)c2F)c[nH]1` [WX-276], for which the EC50 in assay [1] was determined as 3.6 nM.

`O=C(O)c1ccc(-c2nc(-c3c[nH]c4ncc(F)cc34)nc(N[C@H]3C4CCC(CC4)[C@@H]3C(=O)O)c2F)s1` [WX-278] yielded an EC50 in assay [1] of 2.7 nM.

Consider `CN(C)Cc1ccc(-c2nc(-c3c[nH]c4ncc(F)cc34)nc(N[C@H]3C4CCC(CC4)[C@@H]3C(=O)O)c2F)s1` [WX-279], for which it took 0.025 nM to reach a half-maximal effect in assay [1] (EC50). Moreover, in assay [2], the “Survival Rate (percentages)” value came to 100% and the “Weight Losing Rate (day 9)” value came to 28.7%.

`Cn1cc(-c2nc(-c3n[nH]c4ncc(C(F)(F)F)cc34)nc(N[C@H]3C4CCC(CC4)[C@@H]3C(=O)O)c2F)cn1` [WX-280] yielded an EC50 in assay [1] of 0.055 nM.

In turn, `O=C(O)[C@H]1C2CCC(CC2)[C@@H]1Nc1nc(-c2c[nH]c3ncc(F)cc23)nc(-c2cnn(C3CC3)c2)c1F` [WX-281] came in with an EC50 in assay [1] of 0.026 nM.

Take `COCCn1cc(-c2nc(-c3c[nH]c4ncc(F)cc34)nc(N[C@H]3C4CCC(CC4)[C@@H]3C(=O)O)c2F)cn1` [WX-283]: in assay [1], the EC50 was found to be 0.4 nM.

For `CC(C)(C(=O)O)n1cc(-c2nc(-c3c[nH]c4ncc(F)cc34)nc(N[C@H]3C4CCC(CC4)[C@@H]3C(=O)O)c2F)cn1` [WX-284], the EC50 in assay [1] turned out to be 10 nM.

Turning to `Cc1csc(-c2nc(-c3c[nH]c4ncc(F)cc34)nc(N[C@H]3C4CCC(CC4)[C@@H]3C(=O)O)c2F)c1` [WX-285], in assay [1], the EC50 stood at 32 nM.

As to `CC(C)(C(N)=O)n1cc(-c2nc(-c3c[nH]c4ncc(F)cc34)nc(N[C@H]3C4CCC(CC4)[C@@H]3C(=O)O)c2F)cn1` [WX-286], the EC50 in assay [1] came out at 3.7 nM.

On to `CN1CCN(C(=O)c2ccc(-c3nc(-c4c[nH]c5ncc(F)cc45)nc(N[C@H]4C5CCC(CC5)[C@@H]4C(=O)O)c3F)s2)CC1` [WX-288], for which the response in assay [1] was half-maximal at 2.3 nM (EC50).

`CN1CCN(Cc2ccc(-c3nc(-c4c[nH]c5ncc(F)cc45)nc(N[C@H]4C5CCC(CC5)[C@@H]4C(=O)O)c3F)s2)CC1` [WX-289] showed an EC50 in assay [1] of 0.1 nM.

The molecule `O=C(O)[C@H]1C2CCC(CC2)[C@@H]1Nc1nc(-c2c[nH]c3ncc(F)cc23)nc(-c2ccc(CN3CCOCC3)s2)c1F` [WX-290] yielded an EC50 in assay [1] of 0.041 nM. In assay [2], the “Survival Rate (percentages)” value stood at 40% and the “Weight Losing Rate (day 9)” value is 27.6%.

In turn, `CN1CC(n2cc(-c3nc(-c4c[nH]c5ncc(F)cc45)nc(N[C@H]4C5CCC(CC5)[C@@H]4C(=O)O)c3F)cn2)C1` [WX-293] returned an EC50 in assay [1] of 8 nM.

Turning to `CCn1cc(-c2nc(-c3c[nH]c4ncc(F)cc34)nc(N[C@H]3C4CCC(CC4)[C@@H]3C(=O)O)c2F)cn1` [WX-294], the EC50 in assay [1] turned out to be 0.1 nM.

For the molecule `CN(C)Cc1cc(-c2nc(-c3c[nH]c4ncc(F)cc34)nc(N[C@H]3C4CCC(CC4)[C@@H]3C(=O)O)c2F)cs1` [WX-295], the midpoint of the response in assay [1], the EC50, lay at 0.013 nM.

As to `N#CCn1cc(-c2nc(-c3c[nH]c4ncc(F)cc34)nc(N[C@H]3C4CCC(CC4)[C@@H]3C(=O)O)c2F)cn1` [WX-296], in assay [1], a half-maximal effect (EC50) was put at 1 nM.

As for `O=C(O)[C@H]1C2CCC(CC2)[C@@H]1Nc1nc(-c2n[nH]c3ncc(F)cc23)nc(C2CC2(F)F)c1F` (stereo partly drawn) [WX-297], in assay [1], the EC50 stood at 0.024 nM. Also, in assay [2], the “Survival Rate (percentages)” value is 100% and the “Weight Losing Rate (day 9)” value is given as 27.3%.

`O=C(O)[C@H]1C2CCC(CC2)[C@@H]1Nc1nc(-c2c[nH]c3ncc(F)cc23)nc(-c2ccc(Cl)s2)c1F` [WX-298] displayed an EC50 in assay [1] of 6.7 nM.

For the molecule `CC1(c2nc(-c3n[nH]c4ncc(F)cc34)nc(N[C@H]3C4CCC(CC4)[C@@H]3C(=O)O)c2F)CC1` [WX-351], the EC50 in assay [1] is 0.2 nM. For the same molecule, the “Weight Losing Rate (day 9)” value in assay [2] is listed as 35.3%.

As to `O=C(O)[C@H]1C2CCC(CC2)[C@@H]1Nc1nc(-c2c[nH]c3ncc(F)cc23)nc(-c2ccn(C(F)F)n2)c1F` [WX-352], in assay [1], the EC50 was found to be 0.046 nM.

In assay [1], `O=C(O)[C@H]1C2CCC(CC2)[C@@H]1Nc1nc(-c2n[nH]c3ncc(F)cc23)nc(C2CC2F)c1F` (stereo partly drawn) [WX-353] registered an EC50 of 0.039 nM. The EC50 values of the last two molecules are within 1.5-fold of each other.

As for `NC1(c2nc(-c3n[nH]c4ncc(F)cc34)nc(N[C@H]3C4CCC(CC4)[C@@H]3C(=O)O)c2F)CC1` [WX-354], a half-maximal effect in assay [1] (EC50) was put at 4.4 nM.

With `O=C(O)[C@H]1C2CCC(CC2)[C@@H]1Nc1nc(-c2n[nH]c3ncc(F)cc23)nc(C2(F)CC2)c1F` [WX-355], the EC50 in assay [1] is 0.04 nM.

With `N#CC1(c2nc(-c3n[nH]c4ncc(F)cc34)nc(N[C@H]3C4CCC(CC4)[C@@H]3C(=O)O)c2F)CC1` [WX-358], in assay [1], a half-maximal effect (EC50) was put at 0.6 nM.

In assay [1], `N#C[C@H]1C[C@@H]1c1nc(-c2n[nH]c3ncc(F)cc23)nc(N[C@H]2C3CCC(CC3)[C@@H]2C(=O)O)c1F` [WX-359] gave a concentration for a half-maximal effect (EC50) of 0.09 nM.

Turning to `N#C[C@@H]1C[C@H]1c1nc(-c2n[nH]c3ncc(F)cc23)nc(N[C@H]2C3CCC(CC3)[C@@H]2C(=O)O)c1F` [WX-360], in assay [1], it took 0.2 nM to reach a half-maximal effect (EC50).
